# “And” between values parts separate entries of the source, which are not always exact repeats. Equal entries are not always repeated. Where two headings read alike, the source gives them in different places.
# What was measured:
# EphA4 receptor = target: T1, EphA4 receptor (Mus musculus, UniProt Q03137); assay: ELISA: binding affinity (Ki) of WCDD301 for EphA4 via bound Ephrin-A5 Fc; set-up: Bound Ephrin (0.1 µM-WCDD301) / Bound Ephrin, raw data: unit not given here; settings: for Bound Ephrin (0.1 µM-WCDD301): replicates, Figure 1B
# T1 construct: purchased R&D Systems 641-A4-200
# Protocol: Wells of the protein A–coated microplate (Pierce, catalog 15132) were washed using 200 μL of binding buffer (PBS supplemented by 0.01% Tween 20). Recombinant mouse EphA4 Fc chimera protein (R&D Systems, catalog 641-A4-200) was reconstituted in 1× PBS (Genesee, catalog 25-507XB, pH 7.2 ± 0.1), diluted to 3 μg/mL using binding buffer, dispensed (100 μL) in each well, and rocked on a belly dancer shaker (3 hours at room temperature, RT). Following 3 washes in the binding buffer, blocking was done using blocking buffer (5% BSA in binding buffer) for 3 hours at RT. Then, after 5 washes, the reconstituted recombinant mouse Ephrin-A5 Fc (R&D Systems, catalog 7396-EA-050) was added (100 μL) into each well and rocked for 2.5 hours on the shaker (Ephrin-A5 Fc concentrations were used as described in the Results section). After 7 washes using binding buffer, alkaline phosphatase–conjugated antibody against Ephrin-A5 was diluted (1:1,000) in the binding buffer plus 2% BSA, added to each well, and incubated at 4°C, overnight. Conjugation of the anti-EFNA5 antibody (Abnova, catalog H00001946-M02; 0.5 mg/mL; target sequence 114–203) was done using Abcam conjugation kit (catalog ab102850) based on the manufacturer’s instruction. After washing 7 times, p-nitrophenyl phosphate tablet (MilliporeSigma, catalog N1891) was reconstituted in 5 mL of PBS and added to each well (100 μL). Following 1 hour shaking at RT in the dark, reaction was stopped by adding 100 μL of 3N NaOH. OD was read at 405 nm within 5 minutes using the microplate reader (Agilent BioTek Cytation 5).
# As a control, Fc fragment (BioLegend, catalog 790102) was incubated and used for normalization of data. […] Then, Ki was determined via an approach called finding Ki without global fitting ([58]) by using the following formula: […]
# This approach provided a Km value for […] and an estimate for its binding affinity, Ki. To further verify this finding, experiments were designed in the context of 8 nM Ephrin-A5 to determine bound levels of Ephrin-A5 in the presence of WCDD301 (0, 0.1, 0.4, 0.8, and 1.6 μM). Data were normalized and fit by nonlinear regression in GraphPad Prism software version 4 to determine IC50. Then, by using the Cheng-Prusoff equation
# [1] = Microsomal stability assay, human liver microsomes; assay type: in vitro ADME; settings: for Remaining in hepatic microsomes (100 at 0 min): human microsomes, Figure 5C
# Protocol: A total of 445 μL of the working solution was transferred into prewarmed incubation plates for treated (T60) and control (NCF60) measurements. After preincubation (10 minutes at 37°C with constant shaking), 54 μL was transferred to the blank plate, followed by 6 μL of NADPH and 180 μL quenching solution. In parallel, 5 μL of WCDD301 (100 μM) was added into incubation plates (T60 and NCF60) containing microsomes and mixed thoroughly (3 times). For the NCF60 plate, 50 μL of buffer was added, mixed (thoroughly, 3 times), shaken, and incubated at 37°C for 60 minutes. In the quenching plate T0, quenching solution (180 μL) and NADPH cofactor (6 μL) were added. For T60 plate, 54 μL of the mixture was placed into the quenching plate (for T0 point), followed by adding 44 μL NADPH cofactor with shaking incubation at 37°C for 60 minutes. Quenching solution (180 μL) was added to quenching plates at 5, 15, 30, 45, and 60 minutes, and 60 μL of sample was transferred from T60 plate per time point to the quenching plates. For the NCF60 plates, 60 μL sample from the NCF60 incubation plate was transferred to the quenching plate (containing quenching solution) at the 60-minute time point. After plates were shaken for 10 minutes and centrifuged (1,750g, 20 minutes at 4°C), 80 μL of the supernatant was transferred into 240 μL HPLC water for LC-MS/MS analysis. The following first-order kinetic equation was used to calculate half-life (T1/2): [drawing 3]; when
# Then, intrinsic clearance [CLint (microsomal; mic)] and hepatic clearance [CLint (liver)] were predicted using the following equations ([66]): […]
# diabetic NOD mice = assay: Daily body weight in NOD mice; assay type: in vivo, mouse; settings: for Daily body weight (Figure 7F): Diabetic, WCDD301 treated, in g (unit assumed)
# Protocol: We preweighed WCDD301 into microfuge tubes and reconstituted it using deionized water. Using a 10 μL pipette tip, we placed the calculated dose of WCDD301 (at the volume range of 1–1.5 μL) within the center of pearls. WCDD301 was placed into pearls 30–45 minutes before administration. For oral administration of pearls, we designed an applicator using a disposable plastic transfer pipette and syringe plunger lubricated with olive oil. Food intake and body weight in each experimental group (diabetic WCDD301-treated, diabetic placebo-treated, and nondiabetic placebo-treated NOD mice) were monitored daily for 4 weeks. Urine glucose was measured from individually caged NOD mice (nondiabetic placebo treated n = 2, diabetic placebo treated n = 2, and diabetic WCDD301 treated n = 4, 21–23 weeks old) with metabolic cages. Urine glucose was monitored every 24 hours for 10 days by semiquantitative measurements (P-STICKS, Millpledge Veterinary).
# [2] = WCDD301 0.1 µM, 8 nM Ephrin-A5, Figure 1C
# T1 sequence (Q03137 with tags, fused parts or gaps limits assumed): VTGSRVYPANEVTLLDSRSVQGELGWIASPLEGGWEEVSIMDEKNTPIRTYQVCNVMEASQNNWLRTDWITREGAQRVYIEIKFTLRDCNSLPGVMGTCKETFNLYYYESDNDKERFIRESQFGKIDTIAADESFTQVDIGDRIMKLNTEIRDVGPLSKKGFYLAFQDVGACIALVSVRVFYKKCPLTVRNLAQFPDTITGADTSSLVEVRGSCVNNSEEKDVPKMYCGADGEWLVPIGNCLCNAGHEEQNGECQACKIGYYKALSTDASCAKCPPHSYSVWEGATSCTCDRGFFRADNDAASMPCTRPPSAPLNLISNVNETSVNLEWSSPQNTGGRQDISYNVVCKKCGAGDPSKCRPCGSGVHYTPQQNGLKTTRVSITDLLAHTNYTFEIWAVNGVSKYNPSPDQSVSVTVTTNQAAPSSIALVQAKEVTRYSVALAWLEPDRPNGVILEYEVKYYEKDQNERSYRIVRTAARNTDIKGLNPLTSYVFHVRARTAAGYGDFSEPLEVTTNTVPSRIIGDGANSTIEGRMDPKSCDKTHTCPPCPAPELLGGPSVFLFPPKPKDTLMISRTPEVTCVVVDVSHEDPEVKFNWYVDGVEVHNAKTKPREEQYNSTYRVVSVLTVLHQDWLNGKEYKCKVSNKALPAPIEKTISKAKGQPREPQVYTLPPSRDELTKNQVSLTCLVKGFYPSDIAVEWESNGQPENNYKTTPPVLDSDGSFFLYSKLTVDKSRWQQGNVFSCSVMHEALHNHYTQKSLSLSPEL
compound,measurement,setting,value
"CC(=O)OCC(N)(COC(C)=O)COC(C)=O [WCDD301, 2-(acetoxymethyl)-2-aminopropane-1,3-diyl diacetate]",Ki,"EphA4 receptor; 8 nM Ephrin-A5, Figure 1C, read-out: Ki via Cheng-Prusoff equation",0.13 µM
same,IC50,"EphA4 receptor; 8 nM Ephrin-A5, WCDD301 0-1.6 μM, Figure 1C",0.21 µM
same,Bound Ephrin (0.1 µM-WCDD301),EphA4 receptor; EFN 2 nM,0.08 and 0.079 and 0.05
same,Bound Ephrin (0.1 µM-WCDD301),EphA4 receptor; EFN 4 nM,0.057 and 0.077 and 0.06
same,Bound Ephrin (0.1 µM-WCDD301),EphA4 receptor; EFN 8 nM,0.119 and 0.122 and 0.09
same,Bound Ephrin (0.1 µM-WCDD301),EphA4 receptor; EFN 16 nM,0.141 and 0.136 and 0.1
same,Bound Ephrin (0.1 µM-WCDD301),EphA4 receptor; EFN 32 nM,0.235 and 0.22 and 0.2
same,Bound Ephrin (0.1 µM-WCDD301),EphA4 receptor; EFN 64 nM,0.301 and 0.295 and 0.32
same,Ki,"EphA4 receptor; ELISA with Ephrin-A5 Fc, read-out: Ki, binding affinity for EphA4 receptor",≤ 0.13 µM
same,"Bound Ephrin, normalized",EphA4 receptor; [2],51.76 and 79.12
same,"Bound Ephrin, raw data",EphA4 receptor; [2],0.069 and 0.1
same,"Bound Ephrin, raw data","EphA4 receptor; WCDD301 0.4 µM, 8 nM Ephrin-A5, Figure 1C",0.037 and 0.06 and 0.07
same,"Bound Ephrin, raw data","EphA4 receptor; WCDD301 0.8 µM, 8 nM Ephrin-A5, Figure 1C",0.02 and 0.035 and 0.04
same,"Bound Ephrin, raw data","EphA4 receptor; WCDD301 1.6 µM, 8 nM Ephrin-A5, Figure 1C",0.012 and 0.009 and 0.01
same,Microsomal stability in human versus mouse preparation,[1]; human higher than mouse,> 1.5 fold
same,Remaining in hepatic microsomes (100 at 0 min),[1]; 5 min,86.1
same,Remaining in hepatic microsomes (100 at 0 min),[1]; 15 min,78
same,Remaining in hepatic microsomes (100 at 0 min),[1]; 30 min,77.8
same,Remaining in hepatic microsomes (100 at 0 min),[1]; 45 min,77.5
same,Remaining in hepatic microsomes (100 at 0 min),[1]; 60 min,72.4
same,half-life at 1 µM,"[1]; human, liver microsomes",> 2.42 h
same,microsomal CLint at 1 µM,"[1]; human, liver microsomes, read-out: Intrinsic microsomal clearance",< 9.6 µL/min/mg
same,Hepatic clearance,"[1]; human, predicted from microsomal data",< 0.516 L/h/kg
same,Daily body weight (Figure 7F),diabetic NOD mice; Day 1,22.8 and 23.7 and 24.1 and 24.7
same,Daily body weight (Figure 7F),diabetic NOD mice; Day 2,23 and 23.9 and 24.3 and 25.3
same,Daily body weight (Figure 7F),diabetic NOD mice; Day 3,22.6 and 23.4 and 23.9 and 25.3
same,Daily body weight (Figure 7F),diabetic NOD mice; Day 7,22.3 and 23.1 and 23.5 and 24.7
same,Daily body weight (Figure 7F),diabetic NOD mice; Day 8,22.3 and 23.1 and 23.5 and 24.8
same,Daily body weight (Figure 7F),diabetic NOD mice; Day 9,22.6 and 23.4 and 23.9 and 24.8
same,Daily body weight (Figure 7F),diabetic NOD mice; Day 10,22.3 and 23.1 and 23.5 and 24.6
same,Daily body weight (Figure 7F),diabetic NOD mice; Day 11,22.3 and 23.1 and 23.5 and 25.1
same,Daily body weight (Figure 7F),diabetic NOD mice; Day 12,22.4 and 23.2 and 23.7 and 25.4
same,Daily body weight (Figure 7F),diabetic NOD mice; Day 13,22.5 and 23.3 and 23.8 and 25.3
same,Daily body weight (Figure 7F),diabetic NOD mice; Day 14,22.6 and 23.4 and 23.9 and 25.2
same,Daily body weight (Figure 7F),diabetic NOD mice; Day 15,22.9 and 23.8 and 24.2 and 24.7
same,Daily body weight (Figure 7F),diabetic NOD mice; Day 16,23.1 and 24 and 24.4 and 25.6
same,Daily body weight (Figure 7F),diabetic NOD mice; Day 17,23 and 23.9 and 24.3 and 25.3
same,Daily body weight (Figure 7F),diabetic NOD mice; Day 18,22.8 and 23.7 and 24.1 and 25.2
same,Daily body weight (Figure 7F),diabetic NOD mice; Day 19,22.4 and 23.2 and 23.7 and 25.1
same,Daily body weight (Figure 7F),diabetic NOD mice; Day 20,22.6 and 23.4 and 23.9 and 25.7
same,Daily body weight (Figure 7F),diabetic NOD mice; Day 21,22.5 and 23.3 and 23.8 and 25.1
same,Daily body weight (Figure 7F),diabetic NOD mice; Day 22,22.6 and 23.4 and 23.9 and 25.1
same,Daily body weight (Figure 7F),diabetic NOD mice; Day 23,22.4 and 23.2 and 23.7 and 25.1
same,Daily body weight (Figure 7F),diabetic NOD mice; Day 24,22.5 and 23.3 and 23.8 and 25.1
same,Daily body weight (Figure 7F),diabetic NOD mice; Day 25,22.5 and 23.3 and 23.8 and 25.2
same,Daily body weight (Figure 7F),diabetic NOD mice; Day 26,22.3 and 23.1 and 23.5 and 25.4
same,Daily body weight (Figure 7F),diabetic NOD mice; Day 27,22.3 and 23.1 and 23.5 and 25.2
same,Daily body weight (Figure 7F),diabetic NOD mice; Day 28,22.8 and 23.7 and 24.1 and 25.4
same,"Body weight, daily monitoring",diabetic NOD mice; diabetic WCDD301-treated mice,phenotypes similar to nondiabetic placebo-treated mice
